This is an account of results in ChEMBL document CHEMBL1136874, “Novel carbazole and acyl-indole antimitotics” (Bioorg Med Chem Lett, 2009).

Experiment [1] in a line: Cell cycle arrest in human leukemic cells assessed as mitotic block by cytometry. The following applies: Leukemia cell. In kind it is functional, cell-based.
Experiment [2] can be described thus: Displacement of [3H]colchicine from tubulin. Background: In a radioligand displacement assay an active substance lowers the binding of a labelled ligand.
Another experiment deals with MCF7. As to the kind of experiment: Cytotoxicity against human MCF7 cells. Format: functional.
In a further experiment the test system is K562. As to the kind of experiment: Cytotoxicity against human K562 cells. Format: functional.
Another experiment deals with SW-620. As to the kind of experiment: Cytotoxicity against human SW620 cells. Format: functional.
The next experiment relates to PC-3. Briefly: Cytotoxicity against human PC3 cells. In kind it is functional.
For a further experiment, the system named is HT-29. As to the kind of experiment: Cytotoxicity against human HT-29 cells. In kind it is functional.
For experiment [3], the system named is Leukemia cell. As to the kind of experiment: Increase in phospho-Histone H3-ser10 level in human leukemic cells by flow cytometry. Format: functional, cell-based. (In general: Flow cytometry measures light scatter and fluorescence of single cells or particles in a stream.)
The test system of experiment [4] is Leukemia cell. Briefly: Induction of apoptosis in human leukemic cells. In kind it is functional, cell-based.
The nature of experiment [5]: Displacement of labeled vinblastine from tubulin.
Experiment [6] is described as follows: Inhibition of tubulin polymerization.
Experiment [7] in a line: Cell cycle arrest in human leukemic cells assessed as blockage in G2/M phase by high content cellular analysis. Format: functional, cell-based. The settings on record: Leukemia cell.

SMILES strings stand for the structures. The source made the active and inactive calls. No cut-off for these calls is given here. Bounds are passed on as bounds.

On to `CC(C)C(=O)c1cn(-c2ccc(C(N)=O)cc2Cl)c2ccccc12`, for which the Activity in experiment [1] was 5 µM.

As for `C=CCNc1cc(-n2c3c(c4ccccc42)C(=O)CCC3)ccc1C(N)=O`, the Activity in experiment [1] is 0.99 µM.

As for `NC(=O)c1ccc(-n2c3c(c4ccccc42)C(=O)CCC3)c(F)c1`, in experiment [1], the Activity worked out at 5 µM.

Turning to `COc1cc(-n2c3c(c4ccccc42)C(=O)CCC3)ccc1C(N)=O`, in [1], the Activity is > 10 µM.

As to `CN[C@H]1CCc2cc(OC)c(OC)c(OC)c2-c2ccc(OC)c(=O)cc21` [DEMECOLCINE], the IC50 in experiment [2] came to 3.58 µM. For the same compound, the Activity with MCF7 is 7.8 nM; with K562, 16 nM; in the experiment with SW-620 it was 31 nM; in the experiment with PC-3, 31 nM; in the experiment on HT-29, 25 nM.

In the case of `NC(=O)c1ccc(-n2c3c(c4ccccc42)C(=O)CCC3)c(Br)c1`, the Activity in [1] came to 0.15 µM.

With `CC(=O)c1cn(-c2ccc(C(N)=O)cc2Cl)c2cc(Cl)ccc12`, the Activity in the experiment with MCF7 stood at 1.2 nM; in the experiment with K562, 0.085 nM; in the experiment with SW-620, 6.5 nM; with PC-3, 2.2 nM; in the experiment on HT-29, 9.3 nM; in experiment [1] it was 0.21 µM.

Regarding `NC(=O)c1ccc(-n2c3c(c4ccccc42)C(=O)CCC3)cc1`, the Activity is 2300 nM with MCF7; 2000 nM with K562; 1200 nM in the experiment with SW-620; 7000 nM in the experiment on PC-3; 4500 nM in the experiment on HT-29; > 10 µM in experiment [1].

In the case of `NC(=O)c1ccc(-n2c3c(c4ccccc42)C(=O)CCC3)c(Cl)c1`, the Activity with MCF7 is 85 nM; with K562, 210 nM; in the experiment with SW-620, 94 nM; in the experiment with PC-3, 140 nM; with HT-29 it was 300 nM; in experiment [1], 0.42 µM.

On to `NC(=O)c1ccc(-n2c3c(c4ccccc42)C(=O)CCC3)c(C(F)(F)F)c1`, for which the Activity in experiment [1] amounted to 0.24 µM.

`NC(=O)Nc1ccc(-n2c3c(c4ccccc42)C(=O)CCC3)c(Cl)c1`: the outcome (with Leukemia cell [3]; with Leukemia cell [4]; in experiment [7]) was Active. Further, the IC50 was determined as 1.61 µM in [2] and 1.64 µM in experiment [6]. The Activity with MCF7 came out at 0.87 nM; with K562, 5.5 nM; in the experiment with SW-620, 15 nM; with PC-3, 790 nM; in the experiment with HT-29, 3.2 nM; in experiment [1], 0.12 µM. In addition, the result in experiment [5] was inactive.

`COc1cc(C(N)=O)ccc1-n1cc(C(C)=O)c2ccccc21`: in experiment [1], the Activity amounted to 0.17 µM.

In the case of `NC(=O)c1ccc(-n2c3c(c4ccccc42)C(=O)CCC3)cc1Br`, the Activity in [1] is > 10 µM.

For the compound `NC(=O)c1ccc(-n2c3c(c4ccccc42)C(=O)CCC3)cc1NCc1ccccc1`, the Activity in [1] came to 6.2 µM.

For the compound `Cc1cc(C(N)=O)ccc1-n1c2c(c3ccccc31)C(=O)CCC2`, the Activity in [1] turned out to be 0.96 µM.

In [6], `CC[C@]1(O)C[C@@H]2CN(CCc3c([nH]c4ccccc34)[C@@](C(=O)OC)(c3cc4c(cc3OC)N(C)[C@H]3[C@@](O)(C(=O)OC)[C@H](OC(C)=O)[C@]5(CC)C=CCN6CC[C@]43[C@@H]65)C2)C1` [VINBLASTINE] had an IC50 of 1.15 µM. This lies in the single-digit micromolar range.

As for `O=C(O)c1ccc(-n2c3c(c4ccccc42)C(=O)CCC3)c(Br)c1`, in experiment [1], the Activity was > 10 µM.

`N#Cc1ccc(-n2c3c(c4ccccc42)C(=O)CCC3)c(C(F)(F)F)c1`: the Activity in experiment [1] is > 10 µM.

As for `COc1cc2c(c(OC)c1OC)-c1ccc(OC)c(=O)cc1[C@@H](NC(C)=O)CC2`, the Activity in experiment [1] turned out to be 0.043 µM.

As for `NC(=O)c1ccc(-n2c3c(c4ccccc42)C(=O)CCC3)c(N)c1`, the Activity in experiment [1] amounted to 10 µM.

In the case of `COc1cc(-n2cc(C(C)=O)c3ccccc32)ccc1C(N)=O`, the Activity in experiment [1] worked out at 0.1 µM.

For `COc1cc(C(N)=O)ccc1-n1c2c(c3ccccc31)C(=O)CCC2`, in experiment [1], the Activity was determined as 0.42 µM.

In the case of `CC(=O)c1cn(-c2ccc(C(N)=O)cc2Cl)c2ccccc12`, the Activity in experiment [1] was found to be 0.14 µM.

In the case of `CC(=O)Nc1ccc(-n2c3c(c4ccccc42)C(=O)CCC3)c(Cl)c1`, in experiment [1], the Activity was determined as 0.41 µM.

Turning to `NC(=O)c1ccc(-n2c3c(c4ccccc42)C(=O)CCC3)c(-c2ccccc2)c1`, the Activity in experiment [1] was > 10 µM.

`N=C(NO)c1ccc(-n2c3c(c4ccccc42)C(=O)CCC3)c(Br)c1`: the Activity in [1] was 2 µM.

Broadly, the IC50 is the concentration at which inhibition is half-maximal. A high value points to lower potency.
